From US20240270744A1 (Hoffmann-La Roche Inc., priority 2021, published 2024)
pKi: −log10 of the molar value.

Experiments:
h-GABA-A α2β2γ1 = h-GABA-A α2β2γ1 (Homo sapiens (Human), UniProt P47869+Q8N1C3); test: Two-electrode voltage clamp electrophysiology in Xenopus oocytes expressing GABAA receptors; type: cell-based; details: Table 2; for Efficacy (GABA) %: % modulation of GABA EC20 = 100*(Fold increase-1), compound at 30-fold Ki; for Fold increase h-GABA-A α2β2γ1 oocyte @ 30-fold Ki: GABA EC20, test compound at approx. 30-fold its Ki α2β2γ1, Xenopus oocytes, -80 mV
Method: Xenopus laevis oocytes at maturation stages V-VI were used for the expression of cloned mRNA encoding GABAA receptor subunits. Oocytes ready for RNA micro-injection were bought from Ecocyte, Castrop-Rauxel, Germany and stored in modified Barth's medium (composition in mM: NaCl 88, KCl 1, NaHCO3 2.4, HEPES 10, MgSO4 0.82, CaNO3 0.33, CaCl2 0.33, pH=7.5) at 20° C. until the experiment.
Oocytes were plated in 96-well plates for microinjection using the Roboinject automated instrument (MultiChannelSystems, Reutlingen, Germany). Approximately 50 nL of an aqueous solution containing the RNA transcripts for the subunits of the desired GABAA receptor subtype was injected into each oocyte. […] Oocytes were kept in modified Barth's medium (composition in mM: NaCl 88, KCl 1, NaHCO3 […], HEPES 10, MgSO4 0.82, CaNO3 0.33, CaCl2 0.33, pH=7.5) at 20° C. until the experiment.
Electrophysiological experiments were performed using the Roboocyte instrument (MultiChannelSystems, Reutlingen, Germany) on days 3 to 5 after the micro-injection of mRNA. During the experiment the oocytes were constantly superfused by a solution containing (in mM) NaCl 90, KCl 1, HEPES 5, MgCl2 1, CaCl2 1 (pH 7.4). Oocytes were impaled by two glass microelectrodes (resistance: […]) which were filled with a solution containing KCl 1M+K-acetate 1.5 M and voltage-clamped to −80 mV. The recordings were performed at room temperature using the Roboocyte two-electrode voltage clamp system (Multichannelsystem). After an initial equilibration period of 1.5 min GABA was added for 1.5 min at a concentration evoking approximately 20% of a maximal current response (EC20). After another rest interval of 2.5 min GABA was again added evoking a response of similar amplitude and shape. […] Current traces were recorded at a digitization rate of 10 Hz during and shortly before and after the GABA application.
Each compound and concentration was tested on at least 3 oocytes. Different oocytes were used for different compound concentrations.
For the analysis, the digitized current traces of the first and second GABA response were superimposed and, if necessary, rescaled to equal maximal amplitudes. The ratio between the two responses during the time interval of test compound application was calculated point by point. The extremum of the resulting “ratio trace” was taken as the efficacy (“Fold increase”) of the compound expressed as “% modulation of GABA EC20” (100*(Fold increase−1)).

[1] = biological target: human GABAA α1β2γ1 receptor (Homo sapiens (Human), UniProt P14867+Q8N1C3); test: Radioligand binding assay, competition for [3H]RO7239181, γ1-containing GABAA subtypes
[2] = Table 1, [3H]RO7239181 displacement, membranes from HEK293F cells, mean of two determinations
[3] = Table 3, reference compounds comparison

SMILES	Efficacy (GABA) % (h-GABA-A α2β2γ1) [%]	Fold increase h-GABA-A α2β2γ1 oocyte @ 30-fold Ki (h-GABA-A α2β2γ1)	pKi [1, 2]	pKi [1, 3]
Cc1nnc2n1-c1cnc(Cl)c(Cl)c1C(c1c(F)cccc1F)=N[C@H]2C [Example 1, (7S)-11,12-dichloro-9-(2,6-difluorophenyl)-3,7-dimethyl-2,4,5,8,13-pentazatricyclo[8.4.0.02,6]tetradeca-1(10),3,5,8,11,13-hexaene]	55	1.55	–	–
Cc1nnc2n1-c1cnc(C3CC3)c(Cl)c1C(c1c(F)cccc1F)=N[C@H]2C [Example 2, (7S)-11-chloro-12-cyclopropyl-9-(2,6-difluorophenyl)-3,7-dimethyl-2,4,5,8,13-pentazatricyclo[8.4.0.02,6]tetradeca-1(10),3,5,8,11,13-hexaene]	162	2.62	–	–
Cc1ncc2c(c1Cl)C(c1c(F)cccc1F)=N[C@@H](C)c1nnc(C)n1-2 [Example 3, (7S)-11-chloro-9-(2,6-difluorophenyl)-3,7,12-trimethyl-2,4,5,8,13-pentazatricyclo[8.4.0.02,6]tetradeca-1(10),3,5,8,11,13-hexaene]	66	1.66	–	–
Cc1nnc2n1-c1cnc(C(F)(F)F)c(Cl)c1C(c1c(F)cccc1F)=N[C@H]2C [Example 4, (7S)-11-chloro-9-(2,6-difluorophenyl)-3,7-dimethyl-12-(trifluoromethyl)-2,4,5,8,13-pentazatricyclo[8.4.0.02,6]tetradeca-1(10),3,5,8,11,13-hexaene]	116	2.16	7.29	7.29
Cc1nc2n(n1)-c1cnc(C(F)(F)F)c(Cl)c1C(c1c(F)cccc1F)=N[C@H]2C [Example 5]	84	1.84	–	–
C[C@@H]1N=C(c2c(F)cccc2F)c2c(cnc(C(F)(F)F)c2Cl)-n2nc(C(=O)N3CCC3)nc21 [Example 6, azetidin-1-yl-[(7S)-11-chloro-9-(2,6-difluorophenyl)-7-methyl-12-(trifluoromethyl)-2,3,5,8,13-pentazatricyclo[8.4.0.02,6]tetradeca-1(10),3,5,8,11,13-hexaen-4-yl]methanone]	91	1.91	–	–
C[C@@H]1N=C(c2c(F)cccc2F)c2c(cnc(C(F)(F)F)c2Cl)-n2nc(C(=O)N3CC(F)C3)nc21 [Example 7, [(7S)-11-chloro-9-(2,6-difluorophenyl)-7-methyl-12-(trifluoromethyl)-2,3,5,8,13-pentazatricyclo[8.4.0.02,6]tetradeca-1(10),3,5,8,11,13-hexaen-4-yl]-(3-fluoroazetidin-1-yl)methanone]	85	1.85	–	–
C[C@@H]1N=C(c2c(F)cccc2F)c2c(cnc(C(F)(F)F)c2Cl)-n2nc(C(=O)N3CC(O)C3)nc21 [Example 8, [(7S)-11-chloro-9-(2,6-difluorophenyl)-7-methyl-12-(trifluoromethyl)-2,3,5,8,13-pentazatricyclo[8.4.0.02,6]tetradeca-1(10),3,5,8,11,13-hexaen-4-yl]-(3-hydroxyazetidin-1-yl)methanone]	114	2.14	7.31	–
COC1CN(C(=O)c2nc3n(n2)-c2cnc(C(F)(F)F)c(Cl)c2C(c2c(F)cccc2F)=N[C@H]3C)C1 [Example 9, [(7S)-11-chloro-9-(2,6-difluorophenyl)-7-methyl-12-(trifluoromethyl)-2,3,5,8,13-pentazatricyclo[8.4.0.02,6]tetradeca-1(10),3,5,8,11,13-hexaen-4-yl]-(3-methoxyazetidin-1-yl)methanone]	87	1.87	7.34	–
C[C@@H]1N=C(c2c(F)cccc2F)c2c(cnc(C(F)(F)F)c2Cl)-n2nc(C(=O)N3CC(C)(O)C3)nc21 [Example 10, [(7S)-11-chloro-9-(2,6-difluorophenyl)-7-methyl-12-(trifluoromethyl)-2,3,5,8,13-pentazatricyclo[8.4.0.02,6]tetradeca-1(10),3,5,8,11,13-hexaen-4-yl]-(3-hydroxy-3-methyl-azetidin-1-yl)methanone]	82	1.82	7.09	7.09
C[C@@H]1N=C(c2c(F)cccc2F)c2c(cnc(C(F)(F)F)c2Cl)-n2nc(C(=O)N3CCS(=O)(=O)CC3)nc21 [Example 11, [(7S)-11-chloro-9-(2,6-difluorophenyl)-7-methyl-12-(trifluoromethyl)-2,3,5,8,13-pentazatricyclo[8.4.0.02,6]tetradeca-1(10),3,5,8,11,13-hexaen-4-yl]-(1,1-dioxo-1,4-thiazinan-4-yl)methanone]	114	2.14	7.34	–
C[C@@H]1N=C(c2c(F)cccc2F)c2c(cnc(C(F)(F)F)c2Cl)-n2nc(NC(=O)C3COC3)nc21 [Example 12, N-[(7S)-11-chloro-9-(2,6-difluorophenyl)-7-methyl-12-(trifluoromethyl)-2,3,5,8,13-pentazatricyclo[8.4.0.02,6]tetradeca-1(10),3,5,8,11,13-hexaen-4-yl]oxetane-3-carboxamide]	143	2.43	–	–
C[C@@H]1N=C(c2c(F)cccc2F)c2c(cnc(C(F)(F)F)c2Cl)-n2nc(N3CCCC3=O)nc21 [Example 13, 1-[(7S)-11-chloro-9-(2,6-difluorophenyl)-7-methyl-12-(trifluoromethyl)-2,3,5,8,13-pentazatricyclo[8.4.0.02,6]tetradeca-1(10),3,5,8,11,13-hexaen-4-yl]pyrrolidin-2-one]	173	2.73	–	–
C[C@H](O)CNC(=O)c1nc2n(n1)-c1cnc(C(F)(F)F)c(Cl)c1C(c1c(F)cccc1F)=N[C@H]2C [Example 14, (7S)-11-chloro-9-(2,6-difluorophenyl)-N-[(2S)-2-hydroxypropyl]-7-methyl-12-(trifluoromethyl)-2,3,5,8,13-pentazatricyclo[8.4.0.02,6]tetradeca-1(10),3,5,8,11,13-hexaene-4-carboxamide]	158	2.58	7.04	–
C[C@@H]1N=C(c2c(F)cccc2F)c2c(cnc(C(F)(F)F)c2Cl)-n2nc(C(=O)NCCO)nc21 [Example 15, (7S)-11-chloro-9-(2,6-difluorophenyl)-N-(2-hydroxyethyl)-7-methyl-12-(trifluoromethyl)-2,3,5,8,13-pentazatricyclo[8.4.0.02,6]tetradeca-1(10),3,5,8,11,13-hexaene-4-carboxamide]	146	2.46	6.94	–
C[C@@H]1N=C(c2c(F)cccc2F)c2c(cnc(C(F)(F)F)c2Cl)-n2c1nc1c2CCC1 [Example 20, (10S)-6-chloro-8-(2,6-difluorophenyl)-10-methyl-5-(trifluoromethyl)-1,4,9,12-tetrazatetracyclo[9.6.0.02,7.013,17]heptadeca-2(7),3,5,8,11,13(17)-hexaene]	108	2.08	–	–
C[C@@H]1N=C(c2c(F)cccc2F)c2c(cnc(C(F)(F)F)c2Cl)-n2nc(C(=O)NCC(C)(C)O)nc21 [Example 21, (7S)-11-chloro-9-(2,6-difluorophenyl)-N-(2-hydroxy-2-methyl-propyl)-7-methyl-12-(trifluoromethyl)-2,3,5,8,13-pentazatricyclo[8.4.0.02,6]tetradeca-1(10),3,5,8,11,13-hexaene-4-carboxamide]	175	2.75	–	–
C[C@@H]1N=C(c2c(F)cccc2F)c2c(cnc(C(F)(F)F)c2Cl)-n2nc(C(=O)NCC3(O)CC3)nc21 [Example 22, (7S)-11-chloro-9-(2,6-difluorophenyl)-N-[(1-hydroxycyclopropyl)methyl]-7-methyl-12-(trifluoromethyl)-2,3,5,8,13-pentazatricyclo[8.4.0.02,6]tetradeca-1(10),3,5,8,11,13-hexaene-4-carboxamide]	172	2.72	–	–
